Experimental data reported in US10098900B2, “Pharmaceutical compositions and their use for treatment of cancer and autoimmune diseases” (ZHEJIANG DTRM BIOPHARMA CO. LTD., priority 2015, dated 2018).
Like-named read-outs stand apart in the source and are kept apart here. Marks after values point to notes of the source that are not given here.

Tests used:
TMD-8 lymphoma xenograft = assay: Inhibition of tumor growth in vivo, TMD-8 lymphoma xenograft SCID mouse model; details: for Antitumor effect (%): TMD-8, Oral, BID
Description: Inhibition Study of Tumor Growth In Vivo:
SCID mice or nude mice (weighing about 18 g at the beginning of the experiment) were randomly divided into groups by the software in order to achieve close average weights between groups and control the bias within the allowable range. The mice were injected BTK cell lines (TMD-8, WSU-DLCL2 and DoHH-2) for tumor formation. Inhibitors were administered orally once or twice a day, a total of 14 days, 21 days or 28 days. Body weights and tumor volume were recorded.
Xenograft Tumor Models Inoculated with TMD-8, or DoHH2, or WSU-DLCL2 Tumor Cell Lines:
TMD-8 is a sensitive human diffuse large B-cell lymphoma cell line, and DoHH2 is a more difficult to treat human follicular lymphoma cell line, while WSU-DLCL2 is a multi-drug resistant (MDR) human non-Hodgkin's lymphoma cell line. Drug combination therapies provide better efficacies in all three tumor models than single targeted agent alone.
The TMD-8, DoHH2, WSU-DLCL2 tumor cells were maintained in vitro as a suspension culture in RPMI-1640 medium supplemented with 10% heat inactivated fetal calf serum at 37° C. in an atmosphere of 5% CO2 in air. The tumor cells were routinely subcultured twice weekly. The cells growing in an exponential growth phase were harvested and counted for tumor inoculation. Each mouse was inoculated subcutaneously at the right flank with the tumor cells (10×10^6) in 0.2 ml of PBS with Matrigel (1:1) for tumor development. The treatments were started after the average tumor size reached approximately 100-200 mm^3. Each group consisted of 6-10 tumor-bearing mice. The testing article (vehicle, compound or combination) was orally administrated to the mice according to the predetermined doses for 14-days or 21-days. Animal body weight and tumor volume were measured every 2- or 3-days throughout the treatment.

TMD-8 cell line = assay: Inhibition assay of tumor cell activity (cell viability), TMD-8; assay type: cell-based, human; details: individual compound; for inhibition at 0.01 µM / inhibition at 0.1 µM / inhibition at 1 µM: Homo sapiens, TMD8, 48 h, read-out: Inh % on TMD-8 cell line (AVG); for Inh % on TMD-8 cell line (AVG): 48 h
Description: (§1) Inhibition Assay of Tumor Cell Activity:
(§2) Tumor cells (TMD-8, DoHH2 and WSU-DLCL2) were transferred and attached to 96-well plates. After one night, blank buffer and selected concentrations (0.01 nM-100 μM) of the test compound solution were added. After 48 hours incubation, CellTiter-Go was added to lyse the cells. Recording luminescent signal and calculate the percent inhibition of cell viability

[1] = system: resistant WSU-DLCL2 cell line; assay: Inhibition assay of tumor cell activity (cell viability), WSU-DLCL2; assay type: cell-based; details: Homo sapiens, WSUDLCL2, individual compound, read-out: Inh % on resistant WSU-DLCL2 cell line (AVG)
Description: as §1, §2

DoHH-2 cell line = assay: Inhibition assay of tumor cell activity (cell viability), DoHH-2; assay type: cell-based; details: Homo sapiens, individual compound, read-out: Inh % on DoHH-2 cell line (AVG)
Description: as §1, §2

[2] = system: collagen induced arthritis; assay: Collagen-induced arthritis (CIA) model in male DBA/1 mice (clinical score, histopathology); assay type: in vivo, mouse; design: Clinical Score (Mean) / Pathological score (Mean ± SEM), Inflammatory cell infiltration / Pathological score (Mean ± SEM), Pannus growth / Pathological score (Mean ± SEM), Cartilage injury / Pathological score (Mean ± SEM), Bone resorption / Pathological score (Mean ± SEM), Total: scale not given here; details: CIA study; for Clinical Score (Mean): Dexamethasone 0.2 mg/kg
Description: Collagen-Induced Arthritis (CIA) Model: The combination of Compounds 3 and 12 was evaluated in collagen induced arthritis (CIA) mouse model in Male DBA/1 mice. The animals were divided into 8 groups, including a normal, a vehicle, […] treatment groups: […] On the same day, immunized mice were randomly divided into 7 groups: […] The treatments were given orally for 2 consecutive weeks. Body weight and clinical score were monitored through the study (recorded three times a week started after second immunization). At the end of the study, animals were euthanized and both hind paws were collected for histopathology analysis.

WSU-DLCL2 xenograft = details: gavage to mice, 480 mg/kg/day, Knutson et al., cited from earlier work
[3] = Left hind paw, Dexamethasone 0.2 mg/kg QD
[4] = Right hind paw, Dexamethasone 0.2 mg/kg QD

CO[C@H]1C[C@@H]2CC[C@@H](C)[C@@](O)(O2)C(=O)C(=O)N2CCCC[C@H]2C(=O)O[C@H]([C@H](C)C[C@@H]2CC[C@@H](OCCO)[C@H](OC)C2)CC(=O)[C@H](C)/C=C(\C)[C@@H](O)[C@@H](OC)C(=O)[C@H](C)C[C@H](C)/C=C/C=C/C=C/1C [Compound 14, Everolimus]
tumor disappearance (TMD-8 lymphoma xenograft; TMD-8 mice model, text): tumor disappearance

Nc1cccc2c1C(=O)N(C1CCC(=O)NC1=O)C2=O (centres unmarked) [Compound 15, Pomalidomide]
inhibition at 0.01 µM (TMD-8 cell line; 0.01 uM (10 nM)): 45.1%
inhibition at 0.1 µM (TMD-8 cell line; 0.1 uM (100 nM)): 61.7%
inhibition at 1 µM (TMD-8 cell line; 1 uM (1,000 nM)): 76.8%
inhibition at 0.01 µM ([1]; 0.01 uM): -14.5%
inhibition at 0.1 µM ([1]; 0.1 uM): -8.32%
inhibition at 1 µM ([1]; 1 uM): 46.6%
inhibition at 0.01 µM (DoHH-2 cell line; 0.01 uM): -7.95%
inhibition at 0.1 µM (DoHH-2 cell line; 0.1 uM): 6.75%
inhibition at 1 µM (DoHH-2 cell line; 1 uM): 51.3%
Antitumor effect (%) (TMD-8 lymphoma xenograft; FIG. 2, 14 days, 30 mg/kg): 24%
Antitumor effect (%) (TMD-8 lymphoma xenograft; FIG. 3, 21 days, 10 mg/kg): −8%

Nc1cccc2c1CN(C1CCC(=O)NC1=O)C2=O (centres unmarked) [Compound 16, Lenalidomide]
inhibition at 0.01 µM (TMD-8 cell line; 0.01 uM (10 nM)): 7.43%
inhibition at 0.1 µM (TMD-8 cell line; 0.1 uM (100 nM)): 21%
inhibition at 1 µM (TMD-8 cell line; 1 uM (1,000 nM)): 94.2%
Antitumor effect (%) (TMD-8 lymphoma xenograft; FIG. 4, 21 days, 10 mg/kg): 16%
Antitumor effect (%) (TMD-8 lymphoma xenograft; FIG. 4, 21 days, 30 mg/kg): 42%

CO[C@H]1C[C@@H]2CC[C@@H](C)[C@@](O)(O2)C(=O)C(=O)N2CCCC[C@H]2C(=O)O[C@H]([C@H](C)C[C@@H]2CC[C@@H](O)[C@H](OC)C2)CC(=O)[C@H](C)/C=C(\C)[C@@H](O)[C@@H](OC)C(=O)[C@H](C)C[C@H](C)/C=C/C=C/C=C/1C [Compound 17, Rapamycin]
inhibition at 0.01 µM (TMD-8 cell line; 0.01 uM (10 nM)): 58.7%
inhibition at 0.1 µM (TMD-8 cell line; 0.1 uM (100 nM)): 59.8%
inhibition at 1 µM (TMD-8 cell line; 1 uM (1,000 nM)): 65%

CN(Cc1cnc2nc(N)nc(N)c2n1)c1ccc(C(=O)N[C@@H](CCC(=O)O)C(=O)O)cc1 [Compound 18, Methotrexate]
Inh % on TMD-8 cell line (AVG) (TMD-8 cell line; 0.01 uM (10 nM)): −8.45%
Inh % on TMD-8 cell line (AVG) (TMD-8 cell line; 0.1 uM (100 nM)): 32.04%
Inh % on TMD-8 cell line (AVG) (TMD-8 cell line; 1 uM (1,000 nM)): 39.55%

C[C@@H]1C[C@H]2[C@@H]3CCC4=CC(=O)C=C[C@]4(C)[C@@]3(F)[C@@H](O)C[C@]2(C)[C@@]1(O)C(=O)CO [Dexamethasone]
Pathological score (Mean ± SEM), Total ([2]; Dexamethasone 0.2 mg/kg QD): 0.00 ± 0.00
Pathological score (Mean ± SEM), Bone resorption [2, 3]: 0.00 ± 0.00
Pathological score (Mean ± SEM), Cartilage injury [2, 3]: 0.00 ± 0.00
Pathological score (Mean ± SEM), Inflammatory cell infiltration [2, 3]: 0.00 ± 0.00
Pathological score (Mean ± SEM), Pannus growth [2, 3]: 0.00 ± 0.00
Pathological score (Mean ± SEM), Bone resorption [2, 4]: 0.00 ± 0.00
Pathological score (Mean ± SEM), Cartilage injury [2, 4]: 0.00 ± 0.00
Pathological score (Mean ± SEM), Inflammatory cell infiltration [2, 4]: 0.00 ± 0.00
Pathological score (Mean ± SEM), Pannus growth [2, 4]: 0.00 ± 0.00
Clinical Score (Mean) ([2]; day 21): 0.00
Clinical Score (Mean) ([2]; day 32): 0.60***
Clinical Score (Mean) ([2]; day 39): 0.40***
Clinical Score (Mean) ([2]; day 42): 0.20***

CCN(c1cc(-c2ccc(CN3CCOCC3)cc2)cc(C(=O)NCc2c(C)cc(C)[nH]c2=O)c1C)C1CCOCC1 [EPZ-6438]
effect against the WSU-DLCL tumor (WSU-DLCL2 xenograft): achieved a similar effect
effect against the WSU-DLCL tumor (WSU-DLCL2 xenograft; listed as EZ-6438): inhibited tumor growth
